Reference: patent US10766869B2, “Triazoles for the treatment of demyelinating dieases” (Vertex Pharmaceuticals Incorporated, priority 2015, dated 2020)

Test system: primary rat mixed cortical cells
Assay: In vitro myelination assay (MBP positive myelin strands, fold myelin pixels above background)
Assay type: cell-based
Details: relative to baseline of no added compound; for fold induction at 1 µM / fold induction at 10 µM: Rattus norvegicus; for fold induction at 1 µM: read-out: Fold myelin pixels above background, 1.0 μM; for fold induction at 10 µM: read-out: Fold myelin pixels above background, 10.0 μM
Summary of the method: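 Myelination read as total MBP-immunopositive strand pixels per well, imaged at 10× after fixation on day 14 and expressed relative to untreated wells, at 1.0 and 10.0 μM. Cells: dissociated postnatal day 1 rat cortex, cultured two weeks with compound, re-dosed at days 6 and 10.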

| SMILES | fold induction at 1 µM (1.0 μM compound) | fold induction at 10 µM (10.0 μM compound) | Fold myelin pixels above background, 1.0 μM (1.0 μM compound) | Fold myelin pixels above background, 10.0 μM (10.0 μM compound) |
| --- | --- | --- | --- | --- |
| Cc1cc(Nc2ncn(-c3cccc(C(F)(F)F)c3)n2)cc(N2CCCC2)c1 [Compound 190, N-(3-methyl-5-pyrrolidin-1-yl-phenyl)-1-[3-(trifluoromethyl)phenyl]-1,2,4-triazol-3-amine] | 1 to 10 | ≤ 1 | – | – |
| Cc1cc(Nc2ncn(-c3ccc(C(F)(F)F)cc3)n2)cc(N2CCN(C3COC3)CC2)c1 [Compound 191] | ≤ 1 | 1 to 10 | – | – |
| Cc1cc(Nc2ncn(-c3cccc(F)c3)n2)cc(NC2CCN(C3COC3)CC2)c1 [Compound 192, N3-[1-(3-fluorophenyl)-1,2,4-triazol-3-yl]-5-methyl-N1-[1-(oxetan-3-yl)-4-piperidyl]benzene-1,3-diamine] | 100 to 1000 | ≤ 1 | – | – |
| Cc1cc(Nc2ncn(-c3cc(F)cc(F)c3)n2)cc(C2(F)CCN(C3COC3)C2)c1 (centres unmarked) [Compound 193, 1-(3,5-difluorophenyl)-N-[3-[3-fluoro-1-(oxetan-3-yl)pyrrolidin-3-yl]-5-methyl-phenyl]-1,2,4-triazol-3-amine] | 100 to 1000 | 100 to 1000 | – | – |
| CC(=O)N1CCC(c2cc(C)cc(Nc3ncn(-c4ccccc4)n3)c2)CC1 [Compound 194, 1-[4-[3-methyl-5-[(1-phenyl-1,2,4-triazol-3-yl)amino]phenyl]-1-piperidyl]ethanone] | 1000 to 10000 | ≤ 1 | – | – |
| CCOC(=O)N1CCN(c2cc(C)cc(Nc3ncn(-c4cc(F)cc(F)c4)n3)c2)CC1 [Compound 196, ethyl 4-[3-[[1-(3,5-difluorophenyl)-1,2,4-triazol-3-yl]amino]-5-methyl-phenyl]piperazine-1-carboxylate] | ≤ 1 | ≤ 1 | – | – |
| Cc1cc(Nc2ncn(-c3cc(F)cc(F)c3)n2)cc(N(C)C2COC2)c1 [Compound 197, N3-[1-(3,5-difluorophenyl)-1,2,4-triazol-3-yl]-N1,5-dimethyl-N1-(oxetan-3-yl)benzene-1,3-diamine] | 100 to 1000 | 100 to 1000 | – | – |
| CCc1cc(Nc2ncn(-c3ccc(F)c(F)c3)n2)cc(N2CC(N3CCOCC3)C2)c1 [Compound 198, 1-(3,4-difluorophenyl)-N-[3-ethyl-5-(3-morpholinoazetidin-1-yl)phenyl]-1,2,4-triazol-3-amine] | 100 to 1000 | 10 to 100 | – | – |
| Cc1cc(Nc2ncn(-c3cc(F)cc(F)c3)n2)cc(N2CCN(C3CCCOC3)CC2)c1 (centres unmarked) [Compound 199, 1-(3,5-difluorophenyl)-N-[3-methyl-5-(4-tetrahydropyran-3-ylpiperazin-1-yl)phenyl]-1,2,4-triazol-3-amine] | 100 to 1000 | 100 to 1000 | – | – |
| Cc1cc(Nc2ncn(-c3cc(F)cc(F)c3)n2)cc(N2CCN3C(=O)OCC3C2)c1 (centres unmarked) [Compound 200, 7-[3-[[1-(3,5-difluorophenyl)-1,2,4-triazol-3-yl]amino]-5-methyl-phenyl]-5,6,8,8a-tetrahydro-1H-oxazolo[3,4-a]pyrazin-3-one] | 100 to 1000 | 100 to 1000 | – | – |
| Cc1cc(Nc2ncn(-c3ccc(F)cc3)n2)cc(OC2CCN(C3COC3)CC2)c1 [Compound 201, 1-(4-fluorophenyl)-N-[3-methyl-5-[[1-(oxetan-3-yl)-4-piperidyl]oxy]phenyl]-1,2,4-triazol-3-amine] | 1000 to 10000 | ≤ 1 | – | – |
| CC1CCN(c2cc(Nc3ncn(-c4ccc(F)c(F)c4)n3)cc(C3CC3)n2)CC1 [Compound 202, 2-cyclopropyl-N-[1-(3,4-difluorophenyl)-1,2,4-triazol-3-yl]-6-(4-methyl-1-piperidyl)pyridin-4-amine] | 100 to 1000 | 10 to 100 | – | – |
| CN1CCN(c2cc(F)cc(Nc3ncn(-c4cccc(F)c4)n3)c2)CC1 [Compound 203, N-[3-fluoro-5-(4-methylpiperazin-1-yl)phenyl]-1-(3-fluorophenyl)-1,2,4-triazol-3-amine] | 100 to 1000 | ≤ 1 | – | – |
| CCOc1nccc(-n2cnc(Nc3cc(C)cc(N4CCN(C5COC5)CC4)c3)n2)n1 [Compound 204, 1-(2-ethoxypyrimidin-4-yl)-N-[3-methyl-5-[4-(oxetan-3-yl)piperazin-1-yl]phenyl]-1,2,4-triazol-3-amine] | ≤ 1 | ≤ 1 | – | – |
| Cc1cc(Nc2ncn(-c3cc(F)cc(OC(C)C)c3)n2)cc(N2CCN(C)CC2)c1 [Compound 205, 1-(3-fluoro-5-isopropoxy-phenyl)-N-[3-methyl-5-(4-methylpiperazin-1-yl)phenyl]-1,2,4-triazol-3-amine] | 100 to 1000 | ≤ 1 | – | – |
| CCc1cc(F)cc(-n2cnc(Nc3cc(C)cc(N4CCN(C5COC5)CC4)c3)n2)c1 [Compound 206, 1-(3-ethyl-5-fluoro-phenyl)-N-[3-methyl-5-[4-(oxetan-3-yl)piperazin-1-yl]phenyl]-1,2,4-triazol-3-amine] | 100 to 1000 | 100 to 1000 | – | – |

| SMILES | fold induction at 1 µM (1.0 μM compound) | fold induction at 10 µM (10.0 μM compound) | Fold myelin pixels above background, 1.0 μM (1.0 μM compound) | Fold myelin pixels above background, 10.0 μM (10.0 μM compound) |
| --- | --- | --- | --- | --- |
| Cc1cc(Nc2ncn(-c3ccccn3)n2)cc(C2CCCN(C3COC3)C2)c1 (centres unmarked) [Compound 207, N-[3-methyl-5-[1-(oxetan-3-yl)-3-piperidyl]phenyl]-1-(2-pyridyl)-1,2,4-triazol-3-amine] | 10 to 100 | ≤ 1 | – | – |
| Cc1cc(Nc2ncn(-c3cc(F)cc(F)c3)n2)cc([C@@H]2CCN(C3COC3)C[C@@H]2F)c1.Cc1cc(Nc2ncn(-c3cc(F)cc(F)c3)n2)cc([C@H]2CCN(C3COC3)C[C@H]2F)c1 [Compound 208, 1-(3,5-difluorophenyl)-N-[3-[(3S,4R)-3-fluoro-1-(oxetan-3-yl)-4-piperidyl]-5-methyl-phenyl]-1,2,4-triazol-3-amine; 1-(3,5-difluorophenyl)-N-[3-[(3R,4S)-3-fluoro-1-(oxetan-3-yl)-4-piperidyl]-5-methyl-phenyl]-1,2,4-triazol-3-amine] | – | – | +++ (>100 to 1000x) | − (≤1) |
| FC(F)c1cc(Nc2ncn(-c3cccnc3)n2)cc(N2CCN(C3COC3)CC2)c1 [Compound 209, N-[3-(difluoromethyl)-5-[4-(oxetan-3-yl)piperazin-1-yl]phenyl]-1-(3-pyridyl)-1,2,4-triazol-3-amine] | 100 to 1000 | 100 to 1000 | – | – |
| COc1cc(OC)cc(-n2cnc(Nc3cc(C4CC4)nc(N4CCOCC4)c3)n2)c1 [Compound 210, 2-cyclopropyl-N-[1-(3,5-dimethoxyphenyl)-1,2,4-triazol-3-yl]-6-morpholino-pyridin-4-amine] | ≤ 1 | 100 to 1000 | – | – |
| COCC1CCN(c2cc(C)cc(Nc3ncn(-c4ccccn4)n3)c2)CC1 [Compound 211, N-[3-[4-(methoxymethyl)-1-piperidyl]-5-methyl-phenyl]-1-(2-pyridyl)-1,2,4-triazol-3-amine] | 10 to 100 | 100 to 1000 | – | – |
| Cc1cc(Nc2ncn(-c3ccccc3C#N)n2)cc(N2CCCC2)c1 [Compound 212, 2-[3-(3-methyl-5-pyrrolidin-1-yl-anilino)-1,2,4-triazol-1-yl]benzonitrile] | ≤ 1 | ≤ 1 | – | – |
| CN1CCN(c2cc(F)cc(Nc3ncn(-c4ccccc4)n3)c2)CC1 [Compound 213, N-[3-fluoro-5-(4-methylpiperazin-1-yl)phenyl]-1-phenyl-1,2,4-triazol-3-amine] | 100 to 1000 | ≤ 1 | – | – |
| Cc1cc(Nc2ncn(-c3ccccc3)n2)cc(N2CCN(C3CC3)C(=O)C2)c1 [Compound 214, l-cyclopropyl-4-[3-methyl-5-[(1-phenyl-1,2,4-triazol-3-yl)amino]phenyl]piperazin-2-one] | 10 to 100 | 1000 to 10000 | – | – |
| Cc1cc(Nc2ncn(-c3cc(F)cc(F)c3)n2)cc(N2CCC(C3COC3)CC2)c1 [Compound 216, 1-(3,5-difluorophenyl)-N-[3-methyl-5-[4-(oxetan-3-yl)-1-piperidyl]phenyl]-1,2,4-triazol-3-amine] | 1 to 10 | 10 to 100 | – | – |
| Cc1cc(Nc2ncn(-c3cncc(Cl)c3)n2)cc(N2CCN(C3COC3)CC2)c1 [Compound 217, 1-(5-chloro-3-pyridyl)-N-[3-methyl-5-[4-(oxetan-3-yl)piperazin-1-yl]phenyl]-1,2,4-triazol-3-amine] | 10 to 100 | 10 to 100 | – | – |
| CCc1cc(Nc2ncn(-c3cccc(C(F)(F)F)c3)n2)cc(N2CCN(C3COC3)CC2)c1 [Compound 218, N-[3-ethyl-5-[4-(oxetan-3-yl)piperazin-1-yl]phenyl]-1-[3-(trifluoromethyl)phenyl]-1,2,4-triazol-3-amine] | 100 to 1000 | ≤ 1 | – | – |
| Cc1cc(Nc2ncn(-c3ccccc3)n2)cc(N2C[C@@H]3C[C@H]2CN3C2COC2)c1 [Compound 219, N-[3-methyl-5-[(1S,4S)-2-(oxetan-3-yl)-2,5-diazabicyclo[2.2.1]heptan-5-yl]phenyl]-1-phenyl-1,2,4-triazol-3-amine] | 100 to 1000 | 1 to 10 | – | – |
| Cc1cc(Nc2ncn(-c3cc(F)cc(Cl)c3)n2)cc(N2CCN(C)CC2)c1 [Compound 220, 1-(3-chloro-5-fluoro-phenyl)-N-[3-methyl-5-(4-methylpiperazin-1-yl)phenyl]-1,2,4-triazol-3-amine] | 10 to 100 | ≤ 1 | – | – |
| Cc1cc(Nc2ncn(-c3cc(F)cc(F)c3)n2)cc(C2CCN(C3COC3)CC2)c1 [Compound 221, 1-(3,5-difluorophenyl)-N-[3-methyl-5-[1-(oxetan-3-yl)-4-piperidyl]phenyl]-1,2,4-triazol-3-amine] | 1 to 10 | 100 to 1000 | – | – |
| c1ccc(-n2cnc(Nc3cc(C4CC4)nc(N4CCOCC4)c3)n2)cc1 [Compound 222, 2-cyclopropyl-6-morpholino-N-(1-phenyl-1,2,4-triazol-3-yl)pyridin-4-amine] | 100 to 1000 | 1 to 10 | – | – |
